Test system: IL-1β production in PMA-differentiated THP-1 cells
Assay: IL-1β production in PMA-differentiated THP-1 cells stimulated with gramicidin (hTHP-1 assay, HTRF readout; Procedures 1-3)
Assay type: cell-based, human
Conditions: Homo sapiens, THP-1, hTHP-1 assay containing 2% fetal bovine serum; average; class symbols; read-out: hTHP-1 IC50 (Average IC50 of compounds in hTHP-1 assay)
Procedure, shortened: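 PMA-differentiated (20 ng/ml, 16-18 h) THP-1 cells in RPMI with 2% FBS, 50,000 cells/well, preincubated 1 h with compound (final 0.0017-100 μM, 0.37% DMSO), then stimulated with 5 μM gramicidin for 2 h. IL-1β in cell-free supernatant measured by HTRF (620/668 nm).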

| IC50 [µM] | Structure (SMILES) |
| --- | --- |
| 1 to 5 | COC(=O)CCC(=O)N(C)Cc1ccc(S(N)(=O)=NC(=O)Nc2c3c(cc4c2CCC4)CCC3)cc1 (stereo not shown) [Example 251] |
| 1 to 5 | COCc1ccc(S(N)(=O)=NC(=O)Nc2c3c(cc4c2CCC4)CCC3)cc1 (stereo not shown) [Example 242, N′-(1,2,3,5,6,7-hexahydro-s-indacen-4-ylcarbamoyl)-4-(methoxymethyl)benzenesulfonimidamide] |
| 1 to 5 | CN(Cc1ccc(S(N)(=O)=NC(=O)Nc2c3c(cc4c2CCC4)CCC3)cc1)CC(F)F (stereo not shown) [Example 241, 4-(((2,2-Difluoroethyl)(methyl)amino)methyl)-N′-(1,2,3,5,6,7-hexahydro-s-indacen-4-ylcarbamoyl)benzenesulfonimidamide] |

Same assay, conditions: Homo sapiens, THP-1, hTHP-1 assay containing 2% fetal bovine serum; average; given as bound; read-out: hTHP-1 IC50 (Average IC50 of compounds in hTHP-1 assay)

| IC50 [µM] | Structure (SMILES) |
| --- | --- |
| > 30 | CC(=O)N(C)Cc1cccc(S(N)(=O)=NC(=O)Nc2c3c(cc4c2CCC4)CCC3)c1 (single isomer, unassigned) [Example 367, (S) or (R)-N-(3-(N′-((1,2,3,5,6,7-hexahydro-s-indacen-4-yl)carbamoyl)sulfamid-imidoyl)benzyl)-N-methylacetamide] |
| > 30 | COC1CN(Cc2ccc(S(N)(=O)=NC(=O)Nc3c4c(cc5c3CCC5)CCC4)cc2)C1 (single isomer, unassigned) [Example 380, (S) or (R)-N′-((1,2,3,5,6,7-hexahydro-s-indacen-4-yl)carbamoyl)-4-((3-methoxyazetidin-1-yl)methyl)benzene-sulfonimidamide] |
| > 30 | Cc1cc(C(C)(C)O)sc1S(N)(=O)=NC(=O)Nc1c(C(C)C)cc(OC(F)F)cc1C(C)C (single isomer, unassigned) [Example 110, (R)- or (S)-N′-(4-(difluoromethoxy)-2,6-diisopropylphenylcarbamoyl)-5-(2-hydroxypropan-2-yl)-3-methylthiophene-2-sulfonimidamide] |
| > 30 | Cn1ncc2cc(S(N)(=O)=NC(=O)Nc3c4c(cc5c3CCC5)CCC4)ccc21 (single isomer, unassigned) [Example 398, (S) or (R)-N′-((1,2,3,5,6,7-hexahydro-s-indacen-4-yl)carbamoyl)-1-methyl-1H-indazole-5-sulfonimidamide] |

— patent US10654816B2, “Compounds and compositions for treating conditions associated with NLRP activity” (NOVARTIS INFLAMMASOME RESEARCH, INC., priority 2017, dated 2020)
